Peptide text beside a SMILES is read from it. * marks the point of attachment. Cbz = O=C(OCc1ccccc1)*; CH2F = FC*
Key:
[1] = system: NIH-3T3 cells stably expressing RIPK3-1xFv; experiment: AP1-induced RIPK3 dimerization cell death, IncuCyte imaging; assay type: cell-based, murine; details: for effect on AP1 (RIPK3 dimerization)-induced cell death: 30 nM AP1, zVAD 50 μM, Nec1 30 μM, TNFR-Fc 200 ng/ml, siRNA 72 h before
Text: Fv domains rapidly dimerize in response to AP1 treatment that facilitated an investigation of the protein-protein interactions involved in RIPK3 activation and necroptosis (27a). For example, an Fv domain was appended to a C-terminus of RIPK3, that is adjacent to the RHIM domain, in an effort to mimic in situ RHIM-dependent interactions that define RIPK3 activation. RIPK3-1xFv was expressed in NIH-3T3 cells, a cell line that lacks endogenous RIPK3 expression and is therefore unresponsive to TNF-induced necroptosis. See, FIGS. 13A and 13B. Cell death responses of NIH-3T3 cells were quantified by construct expression over time using the IncuCyte imaging system, which allows precise quantification of cell death with high temporal resolution. For example, representative images were acquired from an IncuCyte Imager (data not shown). These images were NIH-3T3 cells stably expressing RIPK3-1xFV, treated with 10 nM AP1 (see FIG. 1B for a quantified graphical representation of this cell death). One set of images show a field of these cells undergoing RIPK3-dependent cell death; the media contains the cell impermeable DNA binding dye Sytox Green, which marks cells that have lost membrane integrity in green. Another set of images depicts the same image set, following analysis by the IncuCyte software package. This software counts each green (dead) cell in each image; counted cells are surrounded by purple halos. Each trace shown in this manuscript depicts data averaged from at least 3 independently treated wells of cells, each of which is imaged in at least 4 separate fields. Each experiment shown is representative of at least 3 separate replicates. All experiments on stably transduced cells is representative of at least three separate replicates performed on each of at least two distinct, independently-derived stable lines.
In the examples below, the following compounds were used: Recombinant murine TNF (Peprotech 315-01A) was used at 1 ng/ml unless otherwise specified; AP1 (Now commercialized by Clontech as “B/B Homodimerizer,” catalog #635059) was dissolved in ethanol to a concentration of 100 μM, then diluted in culture media to a final concentration of 30 nM unless otherwise indicated. zVAD (SM 13 Biochemicals SMFMK001) was dissolved in DMSO to a concentration of 50 mM, then diluted to 50 μM in culture media; Necrostatin-1(Sigma N9037-10MG) was dissolved in DMSO to a concentration of 30 mM, then diluted to 30 μM in culture media; TNFR-Fc (Fisher 430-RI-050) was used at a final concentration of 200 ng/ml; Shield drug was a kind gift of Dr. Tom Wandless and was used at a final concentration of 1 μM. SiGenome SMARTpool siRNAs were purchased from Dharmacon/Fisher. Pools targeting murine MLKL(M-061420-01), murine RIPK1 (M-040150-01), and murine caspase-8 (M-043044-01), as well as a non-targeting “scramble” pool(D-001206-14), were used. Two microliters of a 50 μM stock of these siRNAs were delivered to cells in 6-well format using Lipofectamine siRNA-Max reagent (Life Technologies 13778150) according to the manufacturer's instructions. Forty-eight hours later, these cells were re-plated into 24-well format for cell death assays, or harvested for western blot analysis of knockdowns.
These constructs were transduced into NIH-3T3 cells using standard protocols for helper-dependent retroviral transduction. Transduced cells were selected for 5 days in 1 μg/ml puromycin, then grown to confluence and sorted twice for homogenous GFP expression. […]

[2] = system: EμMyc+p53^ΔPP/wt tumor-bearing animals; assay type: in vivo, mice; details: 200 μg zVAD-fmk with 10 μg anti-CD95, intravenously once/day for 5 days
Method: EμMyc+p53^ΔPP/wt tumor-bearing animals were injected intravenously once/day for 5 days starting at P35 with 10 μg of the antagonist anti-CD95 Jot antibody and 200 μg of zVAD-fmk or vehicle control. Tumor size was monitored by ultrasound of the thymus, where volume was calculated from 3D reconstructions of the scanned tumors.
In a pilot experiment, mice with detectable tumors at 5 weeks (determined by ultrasound, and characteristic of this lymphoma) were given a short course (5 days) of agonistic anti-CD95 (Jo2) and zVAD-fmk (FIG. 11). […] Controls using zVAD-fmk alone are also included.

[3] = system: cells expressing RIPK1-FRB/RIPK3-FKBP; experiment: Heterodimerizer-induced RIPK1/RIPK3 necrosis, annexin V-FITC; assay type: cell-based; details: data not shown
Method: FIG. 6 provides a schematic for inducible RIPK-necrosis. Two systems for inducible RIPK-necrosis. […] Cell death in cells expressing RIPK1-FRB/RIPK3-FKBP and treated with heterodimerizer, and death was detected with annexin V-FITC. Death was inhibited by necrostatin-1 (not shown) (FIG. 6B). Cells expressing RIPK3ΔC-FKBPx2, treated with homodimerizer (1-100 nM); death was detected at 3 hrs by PI uptake. No effect of zVAD-fmk or necrostatin was observed (FIG. 6B).
An inducible dimer system has been employed to trigger homodimerization of caspase-8 in cells (27). The data provided herein support methods to induce RIPK-dependent necrosis by related approaches (FIG. 6A). Heterodimerization of RIPK1 and RIPK3 results in necrosis (see FIG. 6B) which is enhanced by inhibition of caspases and blocked by inhibition of RIPK1 (with nec1, data not shown). In contrast, truncated RIPK3 (lacking the RHIM domain for interaction with RIPK1) can only be oligomerized when FKBP domains (e.g., for example, two domains) that allow multiple monomers to be brought together by the dimerizing agent. Addition of the homodimerization agent to cells expressing this construct induces extremely rapid necrosis that that depends on the kinase activity of RIPK3, but is not affected by inhibition of caspases or nec1 treatment (FIG. 6C).

Row | Structure (SMILES) | effect on AP1 (RIPK3 dimerization)-induced cell death [1] | protection from the lethal effects of anti-CD95 in vivo [2] | effect on heterodimerizer-induced death [3] | effect on heterodimerizer-induced death ([3]; listed as nec1) | effect on AP1 (RIPK3 dimerization)-induced cell death ([1]; listed as Nec1) | inhibitory effects of Nec1 on RIPK3 oligomerization upon knockdown of RIPK1 ([1]; RIPK1 siRNA, 30 nM AP1, 30 μM Nec1)
1 | COC(=O)C[C@H](NC(=O)[C@H](C)NC(=O)[C@@H](NC(=O)OCc1ccccc1)C(C)C)C(=O)CF [zVAD] (Cbz-Val-Ala-Asp(OMe)-CH2F) | notably increased the rate and magnitude of necroptosis | completely protected |  |  |  | 
2 | CN1C(=O)C(Cc2c[nH]c3ccccc23)NC1=S (stereo not shown) [necrostatin-1, Necrostatin-1] | suppressed |  | inhibited | blocked | blocked | abrogated

— patent US20160160189A1, “Truncated Constructs of RIPK3 and Related Uses” (ST. JUDE CHILDREN'S RESEARCH HOSPITAL, priority 2013, published 2016)
